Assay results as given in ChEMBL document CHEMBL4354831, “Novel Cell-Penetrating Peptide Conjugated Proteasome Inhibitors: Anticancer and Antifungal Investigations” (J Med Chem, 2020).
In brackets after ≈: the same amount, converted by molar mass. Activity calls are given as the source filed them. No cut-off for these calls is given here. Peptide text beside a SMILES is read from it.

Legend:
BE(2)-C [1] = assay: Induction of apoptosis in human BE(2)-C cells assessed as condensed chromatin at 2xIC50 after 24 hrs by Hoechst-33342 staining based inverted fluorescence microscopic analysis; assay type: functional, cell-based
BE(2)-C [2] = assay: Induction of apoptosis in human BE(2)-C cells assessed as DNA damage at 2xIC50 after 24 hrs by SYTO9/PI-staining based inverted fluorescence microscopic analysis; assay type: functional, cell-based
HeLa [3] = assay: Induction of apoptosis in human HeLa cells assessed as DNA damage at 2xIC50 after 24 hrs by Hoechst-33342 staining based inverted fluorescence microscopic analysis; assay type: functional, cell-based
HeLa [4] = assay: Induction of apoptosis in human HeLa cells assessed as necrotic cells at 2xIC50 after 24 hrs by Alexa flour 488 annexin V/PI- staining based flow cytometric analysis relative to control; assay type: functional
HeLa [5] = assay: Induction of membrane blebbing in human HeLa cells at 2xIC50 after 12 hrs by SEM analysis; assay type: cell-based; settings: Cell membrane
HeLa [6] = assay: Antiproliferative activity against human HeLa cells assessed as reduction in cell viability after 48 hrs by MTT assay; assay type: functional, cell-based
BE(2)-C [7] = assay: Synergistic antiproliferative activity against human BE(2)-C cells assessed as FICI in presence of cisplatin after 48 hrs by MTT assay; assay type: functional
Candida albicans [8] = assay: Antibiofilm activity against Candida albicans SC5314 assessed as inhibition of biofilm formation after 24 hrs by XTT-dye based assay; assay type: functional
BE(2)-C [9] = assay: Ratio of IC50 for antiproliferative activity against human BE(2)-C cells to IC50 for antiproliferative activity against human BE(2)-C cells in presence of cisplatin; assay type: functional
BE(2)-C [10] = assay: Induction of apoptosis in human BE(2)-C cells assessed as DNA damage at 2xIC50 after 24 hrs by Hoechst-33342 staining based inverted fluorescence microscopic analysis; assay type: functional, cell-based
HeLa [11] = assay: Induction of apoptosis in human HeLa cells at 2xIC50 after 24 hrs by Annexin-V alexa fluor 488/PI staining based fluorescence microscopic analysis; assay type: functional, cell-based
BE(2)-C [12] = assay: Induction of apoptosis in human BE(2)-C cells assessed as apoptotic cells at 2xIC50 after 24 hrs by Alexa flour 488 annexin V/PI- staining based flow cytometric analysis relative to control; assay type: functional
HeLa [13] = assay: Induction of ROS generation in human HeLa cells after 24 hrs by DCFH-DA staining based fluorescence analysis; assay type: functional, cell-based
Candida albicans [14] = assay: Antifungal activity against Candida albicans SC5314 in presence of amphotericin B after 24 to 48 hrs by checker board assay; assay type: functional
HeLa [15] = assay: Induction of pore formation in human HeLa cell membrane at 2xIC50 after 12 hrs by SEM analysis; assay type: cell-based
Candida albicans [16] = assay: Antifungal activity against Candida albicans SC5314 after 48 hrs; assay type: functional; settings: SC5314, 48 h
Candida albicans [17] = assay: Synergistic antifungal activity against Candida albicans SC5314 assessed as FICI in presence of amphotericin B after 24 to 48 hrs by checker board assay; assay type: functional
[18] = molecular target: T1, 20S proteasome (Homo sapiens) (UniProt P49721+P20618+P28074+P28062+P28065+P28072+P25786+P25787+P25788+P25789+P28066+P60900+O14818+Q8TAA3+P40306+A5LHX3+P49720+P28070+Q99436); assay: Inhibition of 20S proteasome in human BE(2)-C cells at 2xIC50 using LLVY-R110 peptide as substrate measured up to 36 hrs by fluorescence based assay; assay type: cell-based
HeLa [19] = assay: Induction of membrane disruption in human HeLa cells assessed as red fluorescence at 2xIC50 after 24 hrs by SYTO9/PI-staining based inverted fluorescence microscopic analysis; settings: Cell membrane
HeLa [20] = assay: Antiproliferative activity against human HeLa cells assessed as reduction in cell viability in presence of cisplatin after 48 hrs by MTT assay; assay type: functional, cell-based
BE(2)-C [21] = assay: Induction of ROS generation in human BE(2)-C cells after 24 hrs by DCFH-DA staining based fluorescence analysis; assay type: functional, cell-based
BE(2)-C [22] = assay: Induction of necrosis in human BE(2)-C cells at 2xIC50 after 24 hrs by Annexin-V alexa fluor 488/PI staining based fluorescence microscopic analysis; assay type: functional, cell-based
BE(2)-C [23] = assay: Induction of membrane disruption in human BE(2)-C cells assessed as membrane blebbing at 2xIC50 after 24 hrs by SYTO9/PI-staining based inverted fluorescence microscopic analysis; settings: Cell membrane
HeLa [24] = assay: Induction of membrane disruption in human HeLa cells assessed as membrane lysis at 2xIC50 after 24 hrs by SYTO9/PI-staining based inverted fluorescence microscopic analysis; settings: Cell membrane
20S proteasome = assay: Inhibition of human 20S proteasome using Suc-LLVY-AMC as substrate measured every 5 mins for 120 mins by fluorescence based assay; assay type: protein-complex assay
BE(2)-C [25] = assay: Induction of ROS generation in human BE(2)-C cells at 0.4 to 200 uM after 24 hrs in presence of ROS quencher, ascorbic acid by DCFH-DA staining based fluorescence analysis; assay type: functional, cell-based
Candida albicans [26] = assay: Potentiation of amphotericin B-induced antifungal activity against Candida albicans SC5314 assessed as fold reduction in amphotericin MIC after 24 to 48 hrs by checker board assay relative to amphotericin alone; assay type: functional
HeLa [27] = assay: Induction of apoptosis in human HeLa cells assessed as apoptotic cells at 2xIC50 after 24 hrs by Alexa flour 488 annexin V/PI- staining based flow cytometric analysis relative to control; assay type: functional
HeLa [28] = assay: Induction of apoptosis in human HeLa cells assessed as condensed chromatin at 2xIC50 after 24 hrs by Hoechst-33342 staining based inverted fluorescence microscopic analysis; assay type: functional, cell-based
BE(2)-C [29] = assay: Induction of apoptosis in human BE(2)-C cells assessed as necrotic cells at 2xIC50 after 24 hrs by Alexa flour 488 annexin V/PI- staining based flow cytometric analysis relative to control; assay type: functional
Candida albicans SC5314 = assay: Inhibition of Candida albicans SC5314 proteasome at antifungal MIC after 12 hrs by fluorescence based analysis
BE(2)-C [30] = assay: Induction of membrane disruption in human BE(2)-C cells assessed as red fluorescence at 2xIC50 after 24 hrs by SYTO9/PI-staining based inverted fluorescence microscopic analysis; settings: Cell membrane
BE(2)-C [31] = assay: Induction of pore formation in human BE(2)-C cell membrane at 2xIC50 after 12 hrs by SEM analysis; assay type: functional, cell-based
HeLa [32] = assay: Induction of necrosis in human HeLa cells at 2xIC50 after 24 hrs by Annexin-V alexa fluor 488/PI staining based fluorescence microscopic analysis; assay type: functional, cell-based
HeLa [33] = assay: Synergistic antiproliferative activity against human HeLa cells assessed as FICI in presence of cisplatin after 48 hrs by MTT assay; assay type: functional
[34] = molecular target: T1, 20S proteasome (Homo sapiens); assay: Potency index, ratio of ixazomib IC50 to compound IC50 for inhibition of human 20S proteasome using Suc-LLVY-AMC as substrate measured every 5 mins for 120 mins by fluorescence based assay; assay type: protein-complex assay
BE(2)-C [35] = assay: Antiproliferative activity against human BE(2)-C cells assessed as reduction in cell viability in presence of cisplatin after 48 hrs by MTT assay; assay type: functional, cell-based
HeLa [36] = assay: Ratio of IC50 for antiproliferative activity against human HeLa cells to IC50 for antiproliferative activity against human HeLa in presence of cisplatin; assay type: functional

SMILES | Activity (BE(2)-C [1]) | Activity (BE(2)-C [2]) | Activity (HeLa [3]) | Activity (HeLa [4]) | Activity (HeLa [5]) | IC50 (HeLa [6]) | fractional inhibitory concentration index (FICI) (BE(2)-C [7]) | MBIC (Candida albicans [8]) | Ratio IC50 (BE(2)-C [9]) | Activity (BE(2)-C [10]) | Activity (HeLa [11]) | Activity (BE(2)-C [12]) | Activity (HeLa [13]) | MIC (Candida albicans [14]) | Activity (HeLa [15]) | MIC (Candida albicans [16]) | fractional inhibitory concentration index (FICI) (Candida albicans [17]) | inhibition [18] | Activity (HeLa [19]) | IC50 (HeLa [20]) | also measured
CC(=O)N[C@@H](Cc1ccc(O)cc1)C(=O)NCC(=O)N[C@@H](CCCNC(=N)N)C(=O)N[C@@H](CCCCN)C(=O)N[C@@H](CCCCN)C(=O)N[C@@H](CCCNC(=N)N)C(=O)N[C@@H](CCCNC(=N)N)C(=O)N[C@@H](CCC(N)=O)C(=O)N[C@@H](CCCNC(=N)N)C(=O)N[C@@H](CCCNC(=N)N)C(=O)N[C@@H](CCCNC(=N)N)C(=O)NCC(=O)NCC(=O)NCC(=O)N[C@@H](Cc1ccc(O)cc1)C(=O)N[C@@H](CC(C)C)C(=O)N[C@@H](Cc1ccccc1)C(=O)N[C@H](C=O)CC(C)C (Ac-YGRKKRRQRRRGGGYLFL-aldehyde) | Active | Active | Active | 2.8% | Active | 4700 nM | 0.49 | 7.8 µM | 4 | Active | Active | 28.3% | Dose-dependent effect | 3.12 µM | Active | 15.6 µM (≈ 35.8 µg/mL) | 0.35 | Active | Active | 1160 nM | Activity (BE(2)-C [21]): Dose-dependent effect; Activity (BE(2)-C [22]): Active; Activity (BE(2)-C [23]): Active; Activity (HeLa [24]): Active; IC50 (20S proteasome): 4.28 to 4.3 nM; Activity (BE(2)-C [25]): inactive; fold change (FC) (Candida albicans [26]): 6; Activity (HeLa [27]): 80.5%; Activity (HeLa [28]): Active; Activity (BE(2)-C [29]): 65.4%; inhibition (Candida albicans SC5314): Active; Activity (BE(2)-C [30]): Active; Activity (BE(2)-C [31]): Active; Activity (HeLa [32]): Active; fractional inhibitory concentration index (FICI) (HeLa [33]): 0.33; Ratio IC50 [34]: 4; IC50 (BE(2)-C [35]): 1580 nM; Ratio IC50 (HeLa [36]): 4
CC(=O)N[C@@H](Cc1ccc(O)cc1)C(=O)NCC(=O)N[C@@H](CCCNC(=N)N)C(=O)N[C@@H](CCCCN)C(=O)N[C@@H](CCCCN)C(=O)N[C@@H](CCCNC(=N)N)C(=O)N[C@@H](CCCNC(=N)N)C(=O)N[C@@H](CCC(N)=O)C(=O)N[C@@H](CCCNC(=N)N)C(=O)N[C@@H](CCCNC(=N)N)C(=O)N[C@@H](CCCNC(=N)N)C(=O)NCC(=O)NCC(=O)NCC(=O)N[C@@H](CC(C)C)C(=O)N[C@@H](CC(C)C)C(=O)N[C@H](C=O)CC(C)C (Ac-YGRKKRRQRRRGGGLLL-aldehyde) | Active | Active | Active | 4.8% | Active | 10200 nM | 0.79 | 15.6 µM | 2.5 | Active | Active | 27.2% | Dose-dependent effect | 6.25 µM | Active | 31.2 µM (≈ 65.5 µg/mL) | 0.36 | Active | Active | 1900 nM | Activity (BE(2)-C [21]): Dose-dependent effect; Activity (BE(2)-C [22]): Active; Activity (BE(2)-C [23]): Active; Activity (HeLa [24]): Active; IC50 (20S proteasome): 2.5 nM; Activity (BE(2)-C [25]): inactive; fold change (FC) (Candida albicans [26]): 6; Activity (HeLa [27]): 72.9%; Activity (HeLa [28]): Active; Activity (BE(2)-C [29]): 64.9%; inhibition (Candida albicans SC5314): Active; Activity (BE(2)-C [30]): Active; Activity (BE(2)-C [31]): Active; Activity (HeLa [32]): Active; fractional inhibitory concentration index (FICI) (HeLa [33]): 0.34; Ratio IC50 [34]: 6; IC50 (BE(2)-C [35]): 4190 nM; Ratio IC50 (HeLa [36]): 5
